# In patent US12043602B2, “Fendiline derivatives” (The Board of Regents of the University of Texas System, priority 2019, dated 2024):
# Legend:
# mGFP-K-RASG12V = mGFP-K-RASG12V (Homo sapiens (Human), UniProt P01116, G12V); assay: K-Ras mislocalization assay (confocal microscopy, Manders coefficient); assay type: cell-based; parameters: key to Emax: Manders coefficient: fraction of mCherry-CAAX co-localizing with GFP-K-Ras; details: MDCK cells; for IC50: 48 h treatment, read-out: IC50 (μM), KRASG12V mislocalization; for Emax: maximal effect, Manders coefficient, 48 h
# Procedure, shortened: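 Readout is the Manders coefficient: share of mCherry-CAAX overlapping mGFP-K-RASG12V in confocal images, proportional to K-Ras mislocalization. Stable MDCK co-expressing lines were exposed 48 h to various drug concentrations or 0.1% DMSO vehicle, then paraformaldehyde-fixed.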
# [1] = system: MiaPaCa-2 (Mut) pancreatic tumor cells; assay: CyQUANT proliferation assay; assay type: cell-based; parameters: key to IC50 proliferation MiaPaCa-2 (Mut): NE—Not efficacious; details: 72 h
# Protocol: (§1) Madine Darby Canine Kidney epithelial cells (MDCK) stably co-expressing mGFP-tagged full length oncogenic mutant K-Ras (GFP—K-RASG12V) or mGFP-LactC2 (peptide probe for phosphatidylserine) and mCherry-tagged to the amino acids 179-189 of H-RasC181S, C184S (mCherry-CAAX, localizes primarily to endomembranes) were grown in DMEM-high glucose/sodium pyruvate/10% FBS. The medium was supplemented with 1× Penicillin/Streptomycin for fluorescence microscopy assays, to avoid any microbial contamination from the test compounds added. KLE and Hec50 cells were maintained in DMEM-F-12 medium supplemented with 10% FBS. Hec-1A and Hec-1B cells were grown in McCoy's 5a medium supplemented with 10% FBS. ESS-1 cells were grown in RPMI 1640 medium supplemented with 20% FBS. MPanc96 cells were grown in DMEM supplemented with 10% FBS, MiaPaCa-2 cells in DMEM supplemented with 10% FBS and 2.5% horse serum and all other cell lines were grown in RPMI 1640 supplemented with 10% FBS. All cancer cell media were supplemented with ×Penicillin/Streptomycin. All cell lines were grown at 37° C. with 5% CO2.
# (§2) Cells were seeded in 96-well plates. After 24 h, fresh growth medium supplemented with 0.1% vehicle (DMSO), or various concentrations of drugs was added and cells were grown for 72 h. Cell numbers were quantified using the CyQUANT® Cell Proliferation Assay Kit (Molecular Probes, Life Technologies), according to the manufacturer's protocol. Fluorescence measurement was used as a measure of live cell number.
# [2] = system: MOH (Mut) pancreatic tumor cells; assay: CyQUANT proliferation assay; assay type: cell-based; parameters: key to IC50 proliferation MOH (Mut): NE—Not efficacious; details: 72 h
# Protocol: as §1, §2
# [3] = system: MPanc96 (Mut) pancreatic tumor cells; assay: CyQUANT proliferation assay; assay type: cell-based; parameters: key to IC50 proliferation MPanc96 (Mut): NE—Not efficacious; details: 72 h
# Protocol: as §1, §2
# [4] = system: MDCK cells co-expressing GFP-K-RASG12V and mCherry-CAAX; assay: Cytotoxicity in mislocalization screen (death of all cells in well); details: drug caused death of all cells in well at 30 μM
Compound,IC50 (mGFP-K-RASG12V),Emax (mGFP-K-RASG12V),IC50 proliferation MiaPaCa-2 (Mut) [1],IC50 proliferation MOH (Mut) [2],IC50 proliferation MPanc96 (Mut) [3],Cytotoxic at 30 μM [4]
"COc1ccc([C@@H](C)N(CC=C(c2ccccc2)c2ccccc2)C(=O)NC(C)(C)C)cc1 [NY0428, (R)-3-tert-butyl-1-(3,3-diphenylallyl)-1-(1-(4-methoxyphenyl)ethyl)urea]",0.29 µM,0.891,NE,NE,NE,No
"C[C@H](c1ccc(F)cc1)N(CC=C(c1ccccc1)c1ccccc1)CCn1cc(CO)nn1 [PW304, (R)-(1-(2-((3,3-diphenylallyl)(1-(4-fluorophenyl)ethyl)amino)ethyl)-1H-1,2,3-triazol-4-yl)methanol]",2.77 µM,0.794,–,–,–,No
"C[C@H](c1ccc(F)cc1)N(CC=C(c1ccccc1)c1ccccc1)CCn1cc(CN)nn1 [PW305, (R)-N-(2-(4-(aminomethyl)-1H-1,2,3-triazol-1-yl)ethyl)-N-(1-(4-fluorophenyl)ethyl)-3,3-diphenylprop-2-en-1-amine]",0.507 µM,0.609,–,–,–,Yes
"C[C@H](c1ccc(F)cc1)N(CC=C(c1ccccc1)c1ccccc1)CCn1cc(CN(C)C)nn1 [PW306, (R)-N-(2-(4-((dimethylamino)methyl)-1H-1,2,3-triazol-1-yl)ethyl)-N-(1-(4-fluorophenyl)ethyl)-3,3-diphenylprop-2-en-1-amine]",3.19 µM,0.666,–,–,–,Yes
"COC(=O)c1cn(CCN(CC=C(c2ccccc2)c2ccccc2)[C@H](C)c2ccc(F)cc2)nn1 [PW307, methyl (R)-1-(2-((3,3-diphenylallyl)(1-(4-fluorophenyl)ethyl)amino)ethyl)-1H-1,2,3-triazole-4-carboxylate]",–,0.628,–,–,–,No
"C[C@H](c1ccc(F)cc1)N(CC=C(c1ccccc1)c1ccccc1)CCn1cc(-c2ccc(F)cc2)nn1 [PW308, (R)-N-(2-(4-(4-fluorophenyl)-1H-1,2,3-triazol-1-yl)ethyl)-N-(1-(4-fluorophenyl)ethyl)-3,3-diphenylprop-2-en-1-amine]",3.32 µM,0.721,–,–,–,No
"C[C@H](c1ccc(F)cc1)N(CCN1CCCC1)C(=O)Nc1ccc(C(F)(F)F)cc1 [PW321, (R)-1-(1-(4-Fluorophenyl)ethyl)-1-(2-(pyrrolidin-1-yl)ethyl)-3-(4-(trifluoromethyl)phenyl)urea]",–,0.587,–,–,–,No
"C[C@H](c1ccc(F)cc1)N(CCN1CCCC1)C(=O)c1ccc(C(F)(F)F)cc1 [PW322, (R)-N-(1-(4-Fluorophenyl)ethyl)-N-(2-(pyrrolidin-1-yl)ethyl)-4-(trifluoromethyl)benzamide]",–,0.662,–,–,–,No
"C[C@H](c1ccc(F)cc1)N(CCN1CCCC1)C(=O)c1cc(-c2ccccc2)ccn1 [PW324, (R)-N-(1-(4-Fluorophenyl)ethyl)-4-phenyl-N-(2-(pyrrolidin-1-yl)ethyl)picolinamide]",2.9 µM,0.767,–,–,–,No
"Cc1ccc(C(=CCN(CCN2CCCC2)[C@H](C)c2ccc(F)cc2)c2ccc(C)cc2)cc1 [PW327, (R)-N-(1-(4-Fluorophenyl)ethyl)-N-(2-(pyrrolidin-1-yl)ethyl)-3,3-di-p-tolylprop-2-en-1-amine]",7.8 µM,0.808,–,–,–,Yes
"COc1ccc(C(=CCN(CCN2CCCC2)[C@H](C)c2ccc(F)cc2)c2ccc(OC)cc2)cc1 [PW356, (R)-N-(1-(4-Fluorophenyl)ethyl)-3,3-bis(4-methoxyphenyl)-N-(2-(pyrrolidin-1-yl)ethyl)prop-2-en-1-amine]",2.44 µM,0.641,–,–,–,Yes at 10 uM
"COc1cccc(C(=CCN(CCN2CCCC2)[C@H](C)c2ccc(F)cc2)c2cccc(OC)c2)c1 [PW357, (R)-N-(1-(4-Fluorophenyl)ethyl)-3,3-bis(3-methoxyphenyl)-N-(2-(pyrrolidin-1-yl)ethyl)prop-2-en-1-amine]",–,0.497,–,–,–,Yes at 10 uM
"COc1cc(C(=CCN(CCN2CCCC2)[C@H](C)c2ccc(F)cc2)c2cc(OC)c(OC)c(OC)c2)cc(OC)c1OC [PW358, (R)-N-(1-(4-Fluorophenyl)ethyl)-N-(2-(pyrrolidin-1-yl)ethyl)-3,3-bis(3,4,5-trimethoxyphenyl)prop-2-en-1-amine]",1.02 µM,0.938,–,–,–,Yes
"C[C@H](c1ccc(F)cc1)N(C/C=C(/c1ccccc1)c1ccc(OC(F)(F)F)cc1)CCN1CCCC1 [PW361, (R,Z)-N-(1-(4-fluorophenyl)ethyl)-3-phenyl-N-(2-(pyrrolidin-1-yl)ethyl)-3-(4-(trifluoromethoxy)phenyl)prop-2-en-1-amine]",0.725 µM,0.606,–,–,–,Yes at 3 uM
"COc1ccc(/C(=C\CN(CCN2CCCC2)[C@H](C)c2ccc(F)cc2)c2ccc(F)cc2)cc1 [PW454, (R,E)-3-(4-fluorophenyl)-N-(1-(4-fluorophenyl)ethyl)-3-(4-methoxyphenyl)-N-(2-(pyrrolidin-1-yl)ethyl)prop-2-en-1-amine]",0.319 µM,0.771,–,–,–,Yes at 10 uM
"C[C@H](c1ccc(F)cc1)N(C/C=C(/c1ccc(F)cc1)c1ccc(C(F)(F)F)cc1)CCN1CCCC1 [PW455, (R,E)-3-(4-fluorophenyl)-N-(1-(4-fluorophenyl)ethyl)-N-(2-(pyrrolidin-1-yl)ethyl)-3-(4-(trifluoromethyl)phenyl)prop-2-en-1-amine]",1.86 µM,0.821,–,–,–,Yes at 10 uM
"COc1ccc(/C(=C\CN(CCN2CCCC2)[C@H](C)c2ccc(F)cc2)c2ccccc2)cc1 [PW460, (R,Z)-N-(1-(4-fluorophenyl)ethyl)-3-(4-methoxyphenyl)-3-phenyl-N-(2-(pyrrolidin-1-yl)ethyl)prop-2-en-1-amine]",2.02 µM,0.801,–,–,–,Yes at 10 uM
"C[C@H](c1ccc(F)cc1)N(CC=C(c1ccccc1)c1ccccc1)CCNc1cc(-c2ccc(F)cc2)n[nH]1 [PW2100, (R)-N^1-(3,3-diphenylallyl)-N^2-(3-(4-fluorophenyl)-1H-pyrazol-5-yl)-N^1-(1-(4-fluorophenyl)ethyl)ethane-1,2-diamine]",–,0.414,–,–,–,No
